# From paper PMC5693986, “Atomic resolution snapshot of Leishmania ribosome inhibition by the aminoglycoside paromomycin” (Nature Communications, 2017)
# Values joined by “and” are separate entries in the source; they are usually repeats but may differ in a detail not shown here. Equal entries are not always repeated. Where two headings read alike, the source gives them in different places.
# Tests used:
# [1] = system: leishmanial cytosolic ribosome; assay: In vitro inhibition of translation in L. tarentolae lysates (cell-free transcription-translation, EGFP reporter); type: biochemical; settings: for IC50: L. tarentolae lysates, mean ± SE of at least three independent repeats, read-out: Inhibition of translation—IC50, Leishmania
# Description: (§1) In order to assess cytosolic ribosome susceptibility and selectivity to putative anti-leishmanial compounds, we performed three different cell-free transcription-translation assays in S30 extracts of E. coli (Promega), rabbit reticulocytes (Promega) and L. tarentolae (Jena Bioscience). […] The ribosomes derived from this species are highly similar to L. donovani ribosomes. Three plasmids, compatible with each extract system, were used in this study: pBESTlucTM (Promega) for the prokaryotic translation assay, Luciferase T7 DNA (Promega) for the reticulocytes and pLEXSY-invitro2-EGFP (Jena Bioscience) for Leishmania. Firefly luciferase was used as a reporter gene for the bacterial and reticulocyte systems and EGFP for Leishmania. […] Assays were performed in white polystyrene 96-well flat bottom plates (Nunc) for the luciferase and black polystyrene 384-well flat-bottom plates (Greiner) for the EGFP. Incubation times were 60 min at 37 °C, 90 min at 30 °C and 120 min at 26 °C for the bacterial, reticulocyte and Leishmania systems, respectively. Reactions were stopped by quick snap cooling followed by a 5-min incubation on ice. Luciferase activity was measured for each well following the addition of 50 μl Luciferase Assay reagent (Promega) by recording the chemi-luminescence signal on […] (Tecan). EGFP fluorescence (λ ex = 488 nm; λ em = 507 nm) was recorded on Tecan Infinite R®F200 microplate reader (Tecan). Extracts lacking the circular DNA template were used as negative control to calculate the fluorescence/chemi-luminescence background. Reaction mixtures without compound presence were used as positive control and were regarded as 100% translation. At least six different concentrations were used to plot each translation inhibition curve, experiments were performed in three independent repeats in duplicates. Half-maximal inhibition concentration (IC50) values were calculated from the concentration–response fitting curves of using GraFit7 software.
# [2] = system: bacterial translation (E. coli S30 extract); assay: In vitro inhibition of translation in E. coli S30 extracts (luciferase reporter); type: biochemical; settings: mean ± SE of at least three independent repeats, read-out: Inhibition of translation—IC50, Bacteria
# Description: as §1
# [3] = system: leishmanial decoding (UGA stop codon read-through); assay: In vitro assessment of misreading (dual-luciferase UGA stop codon read-through) in L. tarentolae lysates; type: biochemical; settings: for Misreading activity (UGA stop codon read-through) at IC50 levels: at the compound's IC50 concentration, L. tarentolae lysates
# Description: To examine AG modes of action in Leishmania, we designed a dual-reporter assay whereby an in-frame linker containing a UGA stop mutation was introduced in between two genes encoding Renilla and Firefly luciferases cloned into an in vitro Leishmania expression system. A similar system was previously used to assess stop codon read-through events in bacteria as well as other eukaryotes, and as these levels seemed to correspond to tRNA misreading levels it has also been previously used to evaluate infidelity of translation[38],[39].
# The content of a p2luc dual-luciferase derived from an SV-40 vector with either wild type or an in-frame TGA stop codon poly-linker was cloned into pLEXSY-invitro2 that is compatible with Leishmania in vitro translation (Jena Bioscience). SV-40 constructs were a generous gift by Professor Timor Baasov. Cloning has been performed by restriction-free (RF) PCR methodology as previously described by Unger et al.[40].
# 5′-[…]-3′ and 5′-[…]-3′ were used as forward and reverse primers, respectively. Primers were produced by custom design (Sigma). The in vitro misreading assays were performed in L. tarentolae lysates and were designed similarly to the inhibition of translation assay reported herein. The main modifications were that the final reaction volume was adjusted to 20 μl and that the assay has been performed in white polystyrene 96-well flatbottom plates (Nunc). Luciferase activity was determined after 120 min incubation at 26 °C, using the Dual luciferase reporter assay system (Promega) and was performed according to the manufacturer’s instructions.
# [4] = biological target: rabbit reticulocyte lysate translation; assay: In vitro inhibition of translation in rabbit reticulocyte lysates (luciferase reporter); type: biochemical; settings: mean ± SE of at least three independent repeats, read-out: Inhibition of translation—IC50, Reticulocytes
# Description: as §1
# [5] = system: bacterial translation (E. coli S30 extract); parameters: method as in PMID 26264664; settings: mean ± SE, read-out: Inhibition of translation—IC50, Bacteria; cited from earlier work
# [6] = system: rabbit reticulocyte lysate translation; parameters: method as in PMID 26264664; settings: rabbit reticulocyte lysates; mean ± SE; read-out: Inhibition of translation—IC50, Reticulocytes; cited from earlier work
SMILES,IC50 [1],"Reduced activity in Leishmania compared to bacteria (inhibition of translation) ([1]; Leishmania versus bacterial ribosome, from Table 1)",IC50 [2] [µM],Misreading activity (UGA stop codon read-through) at IC50 levels [3] [%],IC50 [4] [µM],IC50 [5] [µM],IC50 [6] [µM],Misreading of the genetic code (result in words) ([3]; at concentrations corresponding to its IC50 value)
"CN[C@@H]1[C@@H](O[C@H]2O[C@H](CO)[C@@H](N)[C@H](O)[C@H]2O)OC2C[C@@H](N)[C@@H](O[C@H]3[C@H](O)[C@@H](O)[C@H](N)C[C@@H]3N)OC2[C@@H]1O (stereo partly shown) [APR, apramycin]",201 ± 16.1 µM,4 orders of magnitude,0.049 ± 0.003,5,29 ± 6,,,
"CN[C@@H]1[C@@H](O)[C@@H](O[C@@H]2[C@@H](O)[C@H](O[C@H]3O[C@H]([C@@H](C)O)[C@@H](O)[C@H](O)[C@H]3N)[C@@H](N)C[C@H]2N)OC[C@]1(C)O [G418, geneticin]",0.15 µM and 0.153 µM,,,,,0.009 ± 0.0015,2 ± 0.3,
"CNC(C)C1CCC(N)C(OC2C(N)CC(N)C(OC3OCC(C)(O)C(NC)C3O)C2O)O1 (stereo not shown) [GEN, gentamicin]",18.4 µM,,0.028 ± 0.004,,62 ± 9,,,
"CNC1CC(N)C(O)C(OC2OC(CO)C(O)C3OC4(OC(C(N)CO)C(O)C(O)C4O)OC23)C1O (stereo not shown) [HYG, hygromycin B]",0.065 µM and 0.0647 µM,,0.011 ± 0.002,,0.8 ± 0.1,,,does not induce misreading
"NC[C@@H]1O[C@H](O[C@H]2[C@@H](O)[C@H](O[C@@H]3[C@@H](O)[C@H](N)C[C@H](N)[C@H]3O[C@H]3O[C@H](CN)[C@@H](O)[C@H](O)[C@H]3N)O[C@@H]2CO)[C@H](N)[C@@H](O)[C@@H]1O [NEO, neomycin B]",82.4 µM,,0.011 ± 0.001,,28 ± 5,,,
"NC[C@@H]1O[C@H](O[C@H]2[C@@H](O)[C@H](O[C@@H]3[C@@H](O)[C@H](N)C[C@H](N)[C@H]3O[C@H]3O[C@H](CO)[C@@H](O)[C@H](O)[C@H]3N)O[C@@H]2CO)[C@H](N)[C@@H](O)[C@@H]1O [PAR, paromomycin]",3.62 ± 0.176 µM,,,26,,0.051 ± 0.005,57 ± 4,
